US11572341B2, “Biguanide compound and use thereof” (ImmunoMet Therapeutics Inc., priority 2014, dated 2023)
Counter-ions that a name gives are not always drawn.

Experiments:
AMPKa [pT172] = assay: AMPKa activation [pT172] in MCF7 cell; format: cell-based
HCT116 cells = assay: Inhibitory effect against cancer cell proliferation (MTT); format: cell-based, human; details: Homo sapiens, HCT-116; HCT116, MTT, 48 hours; read-out: IC50 (uM) @ HCT116
Method: The formazane crystals thus formed were dissolved using dimethyl sulfoxide (DMSO) and absorbance of the solution was measured at 560 nm. After culturing for 48 hours, […] synthesized in Examples was indicated as cell viability (%) according to each treated concentration.

IC50 (HCT116 cells) | SMILES | AMPKa activation [pT172] (Unit/ml) @ MCF7 cell (AMPKa [pT172]; 50 uM) | AMPKa activation [pT172] (Unit/ml) @ MCF7 cell (AMPKa [pT172]; 5 uM) | AMPKa activation [pT172] (Unit/ml) @ MCF7 cell (AMPKa [pT172]; 10 uM)
 | Cl.N=C(N)NC(=N)N1CCOCC1 [Example 118] | 6.0 Unit/ml |  | 
 | Cl.N=C(NCc1ccc(OC(F)(F)F)cc1)NC(=N)Nc1cccnc1 [Example 42] | 19.1 Unit/ml | 4.3 Unit/ml | 8.7 Unit/ml
 | Cl.N=C(N)NC(=N)Nc1ccc(OC(F)(F)F)cc1 [Example 140] | 8.7 Unit/ml | 6.2 Unit/ml | 6.6 Unit/ml
 | Cl.N=C(NCCc1ccccc1Cl)NC(=N)N1CCCCC1 [Example 14] | 11.0 Unit/ml |  | 
7.5 µM | C/N=C(\NCCc1ccccc1)NC(=N)N(C)C [Example 97, N1-phenethyl-N2-methyl-N5,N5-dimethyl Biguanide Hydrochloride] |  |  | 
4.8 µM | N=C(NC(=N)Nc1cccc(Br)c1)Nc1cccc(Br)c1 [Example 11, N1-(3-bromo)phenyl-N5-3-bromo)phenyl Biguanide Hydrochloride] |  |  | 
 | Cl.N=C(NC(=N)N1CCCC1)Nc1ccc(Br)cc1 [Example 72] | 19.1 Unit/ml | 5.4 Unit/ml | 6.6 Unit/ml
> 100 µM | CN1CCN(C(=N)NC(=N)Nc2ccc(F)c(F)c2)CC1.Cl [Example 38, N1-(4-methylpiperazin-N5-(3,4-difluoro)phenyl Biguanide Hydrochloride] |  |  | 
 | CCCCN/C(=N\C1CCCCCC1)NC(=N)N.Cl [Example 92, N1-butyl-N2-cycloheptyl Biguanide Hydrochloride] | 21.1 Unit/ml |  | 
 | CN(C)C(=N)NC(=N)N(C)Cc1cccc2ccccc12.Cl [Example 3, N1,N1-dimethyl-N5-methyl-N5-1-(naphthalen-1-yl)methyl Biguanide Hydrochloride] | 6.2 Unit/ml |  | 
8.4 µM | CCOC1CCN(C(=N)NC(=N)Nc2cccc(OC(F)(F)F)c2)CC1.Cl [Example 25, N1-(4-ethoxy)piperidin-N5-3-trifluoromethoxy)phenyl Biguanide Hydrochloride] |  |  | 
 | CC(C)CC1CC(=O)N=C(NC(=N)N2CCCCC2)N1.Cl (stereo not drawn) [Example 161, N-(6-isobutyl-4-oxo-1,4,5,6-tetrahydropyrimidin-2-yl)piperidin-1-carboximidamide Hydrochloride] | 4.06 Unit/ml | 3.03 Unit/ml | 2.73 Unit/ml
 | Cl.N=C(NC(=N)N1CCCC1)N1CCCCC1 [Example 5, N1-piperidin-N5-pyrrolidine Biguanide Hydrochloride] | 5.8 Unit/ml |  | 
100 µM | Cl.N=C(N)NC(=N)Nc1ccc(OC(F)(F)F)cc1 [Example 140, Hydrochloride] |  |  | 
 | CN(C)C(=N)NC(=N)N1CCCCC1.Cl [Example 1, N1,N1-dimethyl-N5-piperidine Biguanide Hydrochloride] | 4.6 Unit/ml |  | 
> 100 µM | Cl.N=C(N)NC(=N)N1CCOCC1 [Example 118, Hydrochloride] |  |  | 
 | CC1(C)CC(=O)N=C(NC(=N)N2CCCCC2)N1.Cl [Example 151, N-(6,6-dimethyl-4-oxo-1,4,5,6-tetrahydropyrimidin-2-yl)piperidin-1-carboximidamide Hydrochloride] | 11.2 Unit/ml | 9.4 Unit/ml | 7.7 Unit/ml
 | Cl.N=C(NC1=NCCCN1)N1CCCCC1 [Example 153, N-(1,4,5,6-tetrahydropyrimidin-2-yl)piperidin 1-carboximidamide Hydrochloride] | 6.3 Unit/ml | 8.0 Unit/ml | 6.8 Unit/ml
 | CC1CCNC(NC(=N)N2CCCCC2)=N1.Cl (stereo not drawn) [Example 162, N-(4-methyl-1,4,5,6-tetrahydropyrimidin-2-yl)piperidin-1-carboximidamide Hydrochloride] | 7.34 Unit/ml | 4.41 Unit/ml | 4.04 Unit/ml
 | CC1CNC(NC(=N)N)=NC1=O.Cl (stereo not drawn) [Example 160, 1-(5-methyl-4-oxo-1,4,6-tetrahydropyrimidin-3-yl)guanidine Hydrochloride] | 2.84 Unit/ml | 2.51 Unit/ml | 2.65 Unit/ml
 | CCC1CCNC(NC(=N)N2CCCCC2)=N1.Cl (stereo not drawn) [Example 165, N-(4-ethyl-1,4,5,6-tetrahydropyrimidin-2-)piperidin-1-carboximidamide Hydrochloride] | 9.16 Unit/ml | 3.80 Unit/ml | 4.36 Unit/ml
